Source: patent publication US9328374B2, “Selective culture medium and method for detecting carbapenem-resistant bacteria in a test sample” (Institut National de la Sante et de la Recherche Medicale …, priority 2011, dated 2016)

Tested on: E. coli
Test: MIC of imipenem, ertapenem and meropenem
Assay type: cell-based, Escherichia coli

C[C@@H](O)[C@H]1C(=O)N2C(C(=O)O)=C(S[C@@H]3CN[C@H](C(=O)N(C)C)C3)[C@H](C)[C@H]12 [MEM, meropenem]
MIC (E. coli 1008 (TEM-1 + CTX-M-1)): 0.016 µg/mL
MIC (E. coli 1008, CTX-M-1 + TEM-1, non-carbapenemase producer): 0.016 µg/mL
MIC (E. coli 1020, CTX-M-1 + TEM-1, non-carbapenemase producer): 0.016 µg/mL
MIC (E. coli 1023, CTX-M-2 + TEM-1, non-carbapenemase producer): 0.016 µg/mL
MIC (E. coli 1033, CTX-M-15, non-carbapenemase producer): 0.016 µg/mL
MIC (E. coli 1034 (TEM-1 + SHV-38)): 0.016 µg/mL
MIC (E. coli 1034, TEM-1 + SHV-38, non-carbapenemase producer): 0.016 µg/mL
MIC (E. coli 1048 (TEM-1 + SHV-2a)): 0.016 µg/mL
MIC (E. coli 1048, TEM-1 + SHV-2a, non-carbapenemase producer): 0.016 µg/mL
MIC (E. coli 1082 (TEM-1)): 0.016 µg/mL
MIC (E. coli 1082, TEM-1, non-carbapenemase producer): 0.016 µg/mL
MIC (E. coli 1092 (OXA-1)): 0.023 µg/mL
MIC (E. coli 1092, OXA-1, non-carbapenemase producer): 0.023 µg/mL
MIC (E. coli 6252, (wild type), non-carbapenemase producer): 0.008 µg/mL
MIC (E. coli 6367 (wild type)): 0.012 µg/mL
MIC (E. coli 6367, (wild type), non-carbapenemase producer): 0.012 µg/mL
MIC (E. coli 10121 (CTX-M-2)): 0.016 µg/mL
MIC (E. coli 10121, CTX-M-2, non-carbapenemase producer): 0.016 µg/mL
MIC (E. coli 10122, CTX-M-1 + TEM-1, non-carbapenemase producer): 0.016 µg/mL
MIC (E. coli 0404018, VIM-1+ CMY-6): 1 µg/mL
MIC (E. coli 1008077, VIM-1+ TEM-1 + CTX-M-15): 4 µg/mL
MIC (E. coli 1108013, IMP-1 + TEM-1): 1 µg/mL
MIC (E. coli ALL (NDM-1 + OXA-1 + OXA-2 + CTX-M-15 + TEM-1)): 8 µg/mL
MIC (E. coli ALL, NDM-1 + TEM-1 + CTX-M-15 + OXA-1 + OXA-2): 8 µg/mL
MIC (E. coli AME (OXA-48 + CTX-M-24)): 0.19 µg/mL
MIC (E. coli AME, OXA-48 + CTX-M-24): 0.19 µg/mL
MIC (E. coli AUS (NDM-1 + CTX-M-15 + TEM-1)): 16 µg/mL
MIC (E. coli AUS, NDM-1 + TEM-1 + CTX-M-15): 16 µg/mL
MIC (E. coli BER (OXA-48 + CTX-M-15)): 0.19 µg/mL
MIC (E. coli BER, OXA-48 + TEM-1 + CTX-M-15): 0.19 µg/mL
MIC (E. coli BOK (OXA-48 + CTX-M-15)): 0.19 µg/mL
MIC (E. coli BOK, OXA-48 + CTX-M-15): 0.19 µg/mL
MIC (E. coli BON (OXA-48 + CTX-M-24 + TEM-1)): 0.19 µg/mL
MIC (E. coli BON, OXA-48 + TEM-1 + CTX-M-24): 0.19 µg/mL
MIC (E. coli BOU (OXA-48 + CTX-M-15)): 0.125 µg/mL
MIC (E. coli BOU, OXA-48 + CTX-M-15): 0.125 µg/mL
MIC (E. coli COL (KPC-2)): 2 µg/mL
MIC (E. coli COL, KPC-2 + TEM-1 + CTX-M-9): 2 µg/mL
MIC (E. coli DIH (VIM-19)): 4 µg/mL
MIC (E. coli DIH, VIM-19): 4 µg/mL
MIC (E. coli DIN, KPC-2 + TEM-1 + OXA-1): 0.5 µg/mL
MIC (E. coli E14 (CTX-M-14)): 0.12 µg/mL
MIC (E. coli E14, CTX-M-14, non-carbapenemase producer): 0.012 µg/mL
MIC (E. coli ECA, ACC-1, non-carbapenemase producer): 0.012 µg/mL
MIC (E. coli EVB, VEB-1, non-carbapenemase producer): 0.012 µg/mL
MIC (E. coli FOR, CTX-M-15, non-carbapenemase producer): 0.012 µg/mL
MIC (E. coli GEN (NDM-1 + OXA-1 + CMY-30 + TEM-1)): 12 µg/mL
MIC (E. coli GEN, NDM-1 + TEM-1 + CMY-30 + OXA-1): 12 µg/mL
MIC (E. coli GOG (OXA-48 + CTX-M-24)): 0.25 µg/mL
MIC (E. coli GUE (NDM-1 + OXA-1 + TEM-1)): 2 µg/mL
MIC (E. coli GUE, NDM-1 + TEM-1 + OXA-1): 2 µg/mL
MIC (E. coli HAN (OXA-48 + CTX-M-15)): 1 µg/mL
MIC (E. coli HAN, OXA-48 + CTX-M-15): 1 µg/mL
MIC (E. coli HB4 (OmpC-, OmpF-)): 0.25 µg/mL
MIC (E. coli HB4, (OmpC-, OmpF-), non-carbapenemase producer, porin deficiency): 0.25 µg/mL
MIC (E. coli IR5 (NDM-1 + CTX-M-15 + TEM-1)): 16 µg/mL
MIC (E. coli IR5, NDM-1 + TEM-1 + CTX-M-15): 16 µg/mL
MIC (E. coli JAP (IMP-1)): 0.5 µg/mL
MIC (E. coli JAP, IMP-1): 0.5 µg/mL
MIC (E. coli LIL, KPC-2 + TEM-1 + OXA-9): 1 µg/mL
MIC (E. coli MAD (VIM-1 + CTX-M-3)): 0.5 µg/mL
MIC (E. coli MAD, VIM-1+ CTX-M-3): 0.5 µg/mL
MIC (E. coli MAR (Overexpressed AmpC)): 2 µg/mL
MIC (E. coli MAR, Overexpressed AmpC, non-carbapenemase producer): 2 µg/mL
MIC (E. coli MET, Chromosome-encoded extended-spectrum cephalosporinase, non-carbapenemase producer): 0.012 µg/mL
MIC (E. coli NAA (OXA-48 + CTX-M-24)): 0.25 µg/mL
MIC (E. coli OM3, OXA-48 + TEM-1 + CTX-M-15): 0.38 µg/mL
MIC (E. coli OM20, NDM-1 + TEM-1 + CTX-M-15): 8 µg/mL
MIC (E. coli OM22, OXA-48 + TEM-1 + CTX-M-15): 0.25 µg/mL
MIC (E. coli PSP (KPC-2)): 0.5 µg/mL
MIC (E. coli PSP, KPC-2 + TEM-1 + OXA-1): 0.5 µg/mL
MIC (E. coli RIC (NDM-1 + OXA-1 + OXA-10 + CMY-16)): 1 µg/mL
MIC (E. coli RIC, NDM-1 + CMY-16 + OXA-1 + OXA-10): 1 µg/mL
MIC (E. coli ROB (OXA-48)): 0.25 µg/mL
MIC (E. coli ROB, OXA-48): 0.25 µg/mL
MIC (E. coli SYD, CMY-2, non-carbapenemase producer): 0.012 µg/mL
MIC (E. coli TWA, IMP-8 + SHV-12): 3 µg/mL
MIC (E. coli ZAN, OXA-48 + TEM-1 + CTX-M-14): 0.75 µg/mL
MIC (strain E. coli 1008, TEM-1 + CTX-M-1, non-carbapenemase producer): 0.016 µg/mL
MIC (strain E. coli 1034, TEM-1 + SHV-38, non-carbapenemase producer): 0.016 µg/mL
MIC (strain E. coli 1048, TEM-1 + SHV-2a, non-carbapenemase producer): 0.016 µg/mL
MIC (strain E. coli 10121, CTX-M-2, non-carbapenemase producer): 0.016 µg/mL
MIC (strain E. coli AME, OXA-48 + CTX-M-24): 0.19 µg/mL
MIC (strain E. coli BON, OXA-48 + TEM-1 + CTX-M-24): 0.19 µg/mL
MIC (strain E. coli ECA, ACC-1, non-carbapenemase producer): 0.012 µg/mL
MIC (strain E. coli EVB, VEB-1, non-carbapenemase producer): 0.012 µg/mL
MIC (strain E. coli FOR, CTX-M-15, non-carbapenemase producer): 0.012 µg/mL
